Results on one substance are retold here after patent US5162538A, “Antiviral new peptides” (Bayer Aktiengesellschaft, priority 1989, dated 1992).

The test system of one assay is Visna virus. Nature of the assay: Visna virus test in infected cell culture (cytopathic effect). The settings on record: sheep fibroblast cells infected with Visna virus, MOI approx. 0.05, 7 days at 37° C., non-cytotoxic concentrations. The format is cell-based. The method, then:
This was shown by way of example for the Visna virus.
The Visna virus and the HIV virus both belong to the retrovirus subfamily of lentiviruses.
In cell cultures which are infected with Visna virus, pronounced, virus-induced, cytopathic effects appear 5 to 10 days after infection. By treating the infected cell cultures with compounds according to the invention, it was possible to prevent the appearance of these cytopathic effects.
The Visna virus test was carried out according to the method of O. Narayan et al., Journal of Infectious Diseases 135, 5, 1977, 800-806. For this, a compound according to the invention was diluted to non-cytotoxic concentrations in the culture medium in 96-well microtiter plates. Sheep fibroblast cells (5×10^4 cells per well) in production medium were then added to each well. Each well then received 15 μl of a Visna virus solution having a titer of approx. 2.5×10^4 TCID50 (TCID=tissue culture infections dose). This virus dose corresponds to a MOI (multiplicity of infection) of approx. 0.05.
Under these infection conditions, a virus-induced, cytopathic effect resulted between day 5 and day 10 in an infection control without substance. The infected and treated cells and the control cells were incubated for 7 days at 37° C. and 5% CO2. […]
A general note: Protection from cytopathic effect is a common read-out in antiviral testing.

The next assay has as its target T1, HIV protease (Human immunodeficiency virus type 1 group M subtype B, UniProt P04585).
T1 construct: purified HIV protease was incubated with synthetic peptide
Kind of assay: HIV-specific protease enzyme test (RP-HPLC analysis of synthetic peptide cleavage). The format is biochemical. The settings on record: purified HIV protease incubated with synthetic peptide imitating a Gag-precursor cleavage site; 50% inhibition of protease activity. As for the experimental part: The compounds of the general formula (I) have extraordinarily strong action against retroviruses. This was proven by experiments using the HIV-specific protease enzyme test.
The result of the example below was obtained using the HIV-test system described in the following reference [cf. Hansen, J., Billich, S., Schulze, T., Sukrow, S. and Molling, K. (1988), EMBO Journal, Vol. 7, No. 6, pp. 1785-1791]: purified HIV protease was incubated with synthetic peptide which imitates a cleavage site in the Gag-precursor protein and represents an in vivo cleavage site of HIV protease. The resulting cleavage products of the synthetic peptide were analyzed by reverse-phase high performance liquid chromatography (RP-HPLC). The IC50 value relates to the substance concentration which causes 50% inhibition of protease activity under the abovementioned test conditions.

As for “Nα-{Nδ-[1-(1-oxo)ethyl-[1-(5-S-amino-6-cyclohexyl-4-S-hydroxy-2-(1-methyl)ethylhexanoyl)]]-S-isoleucinyl}-2-pyridylmethylamide [Example I]”, in the assay on Visna virus, the “protection from virus-induced cytopathic effect / cell destruction” value is “protected the cells infected with Visna virus from the virus-induced cell destruction”. Besides, half-maximal inhibition at HIV protease (IC50) was put at 500 pM.

What is called IC50 is the concentration that gives 50% inhibition. Higher therefore signals weaker potency.
